What all share (test): Post-emergence application in field trials, herbicidal activity (damage scale 0 to 100%)
Holding throughout (format): in vivo

One experiment relates to Panicum maximum (PANMA). The note with it: height 20-25 cm, 21 DAT, Table 2.3. On the procedure: (§1) In the examples below, using the method of S. R. Colby (1967) “Calculating synergistic and antagonistic responses of herbicide combinations”, Weeds 15, p. 22ff., the value E, which is expected if the activity of the individual active compounds is only additive, was calculated:
(§2) [formula] • wherein • X=percent activity using active herbicide A at an application rate a; • Y=percent activity using active herbicide B (e.g. pyroxasulfone) at an application rate b; • E=expected activity (in %) by A+B at application rates a+b.
(§3) If the value found experimentally is higher than the value E calculated according to Colby, a synergistic effect is present.
(§4) On field test sites, natural weed infestation or seeded weeds were treated post-emergence of the weeds.
(§5) In the field trials, the weeds were treated as indicated below.
(§6) In the following experiments, the herbicidal activity for the individual herbicidal compositions (solo and mixture applications) was assessed at the indicated days after treatment (DAT). The assessments for the damage on undesired weeds caused by the composition was carried out using a scale from 0 to 100%, compared to the untreated control plants. Here, 0 means no damage and 100 means complete destruction of the plants.
(§7) Herbicide A-1 (50 g/l) and pyroxasulfone (85% WG) were, together with addition of 0.5% MSO (methylated seed oil) as adjuvant, formulated in water as distribution medium (water volume 200 l/ha) and sprayed with commercial flat fan nozzles.

For experiment [1], the system named is Digitaria horizontalis (DIGHO). The note with it: growth stage 25, height 5-10 cm, 21 DAT, Table 2.6. On the procedure: as §1, §2, §3, §4, §5, §6, §7
The test system of experiment [2] is Euphorbia heterophylla (EPHHL). The note with it: 21 DAT. On the procedure: as §1, §2, §3, §4, §5, §6, §7
In the next experiment the test system is Bidens pilosa (BIDPI). On the procedure: as §1, §2, §3, §4, §5, §6, §7
The next experiment relates to Eleusine indica (ELEIN). On the procedure: as §1, §2, §3, §4, §5, §6, §7
Another experiment deals with Ipomoea triloba (IPOTR). Particulars: height 20-25 cm, 21 DAT, Table 2.2. Here is the method: as §1, §2, §3, §4, §5, §6, §7
Experiment [3] has as its system Spermacoce latifolia (BOILF). Particulars: 21 DAT, Table 2.5. Here is the method: as §1, §2, §3, §4, §5, §6, §7
For experiment [4], the system named is Commelina benghalensis (COMBE). The note with it: 21 DAT. On the procedure:
as §1, §2, §3, §4, §5, §6, §7

Setting [5] is: height 20-25 cm, B 120 g ai/ha, Table 2.2.
The mark [6] stands for this setting: height 20-25 cm, A-1 25 g ai/ha, Table 2.2.

Regarding `Cn1nc(C(F)(F)F)c(CS(=O)(=O)C2=NOC(C)(C)C2)c1OC(F)F` [B, pyroxasulfone], the “% Herbicidal activity” value with Panicum maximum (PANMA) (B 120 g ai/ha) is 0%; in experiment [1] (B 120 g ai/ha) it was 5%; in experiment [2] (growth stage 12-16, height 5-15 cm, B 120 g ai/ha, Table 2.6) it was 5%; in experiment [2] (height 15-35 cm, B 120 g ai/ha, Table 2.4), 0%; in experiment [2] (setting [5]), 0%; in the experiment on Bidens pilosa (BIDPI) (growth stage 12-16, height 5-10 cm, B 120 g ai/ha, 21 DAT, Table 2.6), 5%. Besides, the “% Herbicidal activity” value was found to be 0% with Bidens pilosa (BIDPI) (growth stage 23-25, height 10-20 cm, B 120 g ai/ha, 20 DAT, Table 2.1); 0% with Bidens pilosa (BIDPI) (height 20-45 cm, B 120 g ai/ha, 21 DAT, Table 2.4); 0% in the experiment with Eleusine indica (ELEIN) (growth stage 21-25, height 5-10 cm, B 120 g ai/ha, 20 DAT, Table 2.1); 5% in the experiment with Eleusine indica (ELEIN) (growth stage 23-25, height 3-5 cm, B 120 g ai/ha, 21 DAT, Table 2.6); 0% in the experiment on Eleusine indica (ELEIN) (height 20-25 cm, B 120 g ai/ha, 21 DAT, Table 2.3); 0% in the experiment with Ipomoea triloba (IPOTR) (B 120 g ai/ha). The “% Herbicidal activity” value in experiment [3] (B 120 g ai/ha) worked out at 5%; in experiment [4] (growth stage 11-14, height 2-10 cm, B 120 g ai/ha, Table 2.6), 10%; in experiment [4] (setting [5]) it was 0%.
For the molecule `CCOC(=O)COc1ccccc1Oc1nc(-n2c(=O)cc(C(F)(F)F)n(C)c2=O)c(F)cc1Cl` [A-1, ethyl 2-[2-[[3-chloro-5-fluoro-6-[3-methyl-2,6-dioxo-4-(trifluoromethyl)pyrimidin-1-yl]-2-pyridyl]oxy]phenoxy]acetate], the “% Herbicidal activity” value is on record as 75% in the experiment on Panicum maximum (PANMA) (A-1 25 g ai/ha); 92% in experiment [1] (A-1 50 g ai/ha); 97% in experiment [2] (growth stage 12-16, height 5-15 cm, A-1 25 g ai/ha, Table 2.6); 98% in experiment [2] (growth stage 12-16, height 5-15 cm, A-1 50 g ai/ha, Table 2.6); 95% in experiment [2] (height 15-35 cm, A-1 50 g ai/ha, Table 2.4); 86% in experiment [2] (setting [6]). Moreover, the “% Herbicidal activity” value in the experiment on Bidens pilosa (BIDPI) (growth stage 12-16, height 5-10 cm, A-1 25 g ai/ha, 21 DAT, Table 2.6) worked out at 94%; with Bidens pilosa (BIDPI) (growth stage 23-25, height 10-20 cm, A-1 25 g ai/ha, 20 DAT, Table 2.1), 71%; in the experiment on Bidens pilosa (BIDPI) (growth stage 23-25, height 10-20 cm, A-1 50 g ai/ha, 20 DAT, Table 2.1), 77%; with Bidens pilosa (BIDPI) (height 20-45 cm, A-1 50 g ai/ha, 21 DAT, Table 2.4) it was 92%; with Eleusine indica (ELEIN) (growth stage 21-25, height 5-10 cm, A-1 25 g ai/ha, 20 DAT, Table 2.1), 53%; in the experiment with Eleusine indica (ELEIN) (growth stage 21-25, height 5-10 cm, A-1 50 g ai/ha, 20 DAT, Table 2.1) it was 59%. Moreover, the “% Herbicidal activity” value is 94% with Eleusine indica (ELEIN) (growth stage 23-25, height 3-5 cm, A-1 25 g ai/ha, 21 DAT, Table 2.6); 95% with Eleusine indica (ELEIN) (growth stage 23-25, height 3-5 cm, A-1 50 g ai/ha, 21 DAT, Table 2.6); 52% in the experiment with Eleusine indica (ELEIN) (height 20-25 cm, A-1 25 g ai/ha, 21 DAT, Table 2.3); 88% with Ipomoea triloba (IPOTR) (A-1 25 g ai/ha); 94% in experiment [3] (A-1 25 g ai/ha); 97% in experiment [3] (A-1 50 g ai/ha). Also, the “% Herbicidal activity” value in experiment [4] (growth stage 11-14, height 2-10 cm, A-1 50 g ai/ha, Table 2.6) came to 94%; in experiment [4] (setting [6]), 42%.
